Results as given in patent US11732256B2, “Multivalent glycopeptides that tightly bind to target proteins” (Brandeis University, priority 2013, dated 2023).
*1 amine or outer side, *2 acyl side, *3 side chain or, on linkers, in order; H or OH if unused. Where a SMILES comes first, the peptide text is derived from it. [ ]: non-standard residue; d: D form. The star is where a group is joined. X1 = O=C([C@H](CCc1cn(C2CCC(OC3O[C@H](CO[C@H]4O[C@H](CO[C@H]5O[C@H](CO)[C@@H](O)[C@H](O)[C@@H]5O[C@H]5O[C@H](CO)[C@@H](O)[C@H](O)[C@@H]5O)[C@@H](O)[C@H](O[C@H]5O[C@H](CO)[C@@H](O)[C@H](O)[C@@H]5O[C@H]5O[C@H](CO)[C@@H](O)[C@H](O)[C@@H]5O)[C@@H]4O)[C@@H](O)[C@H](O[C@H]4O[C@H](CO)[C@@H](O)[C@H](O)[C@@H]4O[C@H]4O[C@H](CO)[C@@H](O)[C@H](O)[C@@H]4O[C@H]4O[C@H](CO)[C@@H](O)[C@H](O)[C@@H]4O)[C@@H]3O)CC2)nn1)N[*:1])[*:2]; For = O=C*

Tested on: HIV broadly neutralizing antibody 2G12
Assay: Radioactive 2G12-glycopeptide binding assay with protein G magnetic beads (binding curve and KD determination)
Settings: for Fmax [%] / Kd: Table 6 mutants/truncations, radioactive binding assay
Protocol: The sequences were obtained by cloning non-selected library DNA. […] FIG. 9B is an SDS-PAGE analysis of the click reaction of the non-selected peptides. Both peptides were transcribed and translated from PCR-amplified DNA in Pure System that contains 0.02 mg/mL T7 RNA polymerase and additional 1 mM each NTP. The peptides were labeled with 3H-histidine and the bands were visualized by fluorography.
For round 10 winners, 0.12-0.2 nM radioactive glycopeptides were incubated with 0, 0.25, 0.5, 1, 2, 4, 8, 16, 32 or 64 nM 2G12 in 40 μL of selection buffer at room temperature for 1 h. Then, the solution was added to 0.12 mg of pre-equilibrated Dynabeads Protein G and tumbled at room temperature for 30 min. The supernatant was removed and the beads were washed with 3×40 μL of selection buffer. The radioactivities of the supernatant and wash solutions were measured by liquid scintillation counting as unbound fractions. […] The beads were resuspended in 40 μL of selection buffer, heated at 70° C. for 30 min to elute the bound glycopeptides, chilled on ice for 5 min, and tumbled at room temperature for 10 min. The supernatant was removed, and the beads were washed with 40 μL of selection buffer and resuspended in 40 μL of selection buffer. The radioactivities of these solutions and suspensions were measured by liquid scintillation counting separately and the values were combined as apparent bound fractions. […] All experiments were done at least in triplicate. KDs were calculated as described in the footnote of Table 4 (below).

Molecule	Fmax [%]	Kd [nM]	2G12 binding after truncation (truncated clones)	Tolerance of Cys substitutions for 2G12 binding (Cys mutated to Ser)
XDTLHLKQIGGXPNSITQQDVRXTSIPYTYTWP [Clone 10F3-C15S]	63	2.91	–	–
CC[C@H](C)[C@H](NC(=O)[C@H](CO)NC(=O)[C@H](CCCNC(=N)N)NC(=O)[C@H](CCc1cn(C2CCC(OC3O[C@H](CO[C@H]4O[C@H](CO[C@H]5O[C@H](CO)[C@@H](O)[C@H](O)[C@@H]5O[C@H]5O[C@H](CO)[C@@H](O)[C@H](O)[C@@H]5O)[C@@H](O)[C@H](O[C@H]5O[C@H](CO)[C@@H](O)[C@H](O)[C@@H]5O[C@H]5O[C@H](CO)[C@@H](O)[C@H](O)[C@@H]5O)[C@@H]4O)[C@@H](O)[C@H](O[C@H]4O[C@H](CO)[C@@H](O)[C@H](O)[C@@H]4O[C@H]4O[C@H](CO)[C@@H](O)[C@H](O)[C@@H]4O[C@H]4O[C@H](CO)[C@@H](O)[C@H](O)[C@@H]4O)[C@@H]3O)CC2)nn1)NC=O)C(=O)N1CCC[C@H]1C(=O)N[C@@H](Cc1c[nH]c2ccccc12)C(=O)N[C@@H](Cc1ccc(O)cc1)C(=O)N[C@H](C(=O)N[C@@H](Cc1ccc(O)cc1)C(=O)N[C@@H](CCCNC(=N)N)C(=O)N[C@@H](Cc1c[nH]c2ccccc12)C(=O)N[C@@H](CC(C)C)C(=O)N1CCC[C@H]1C(=O)N[C@@H](CC(N)=O)C(=O)NCC(=O)N[C@@H](CO)C(=O)NCC(=O)N[C@@H](CO)C(=O)N[C@@H](CC(C)C)C(=O)NCC(=O)N[C@@H](Cc1c[nH]cn1)C(=O)N[C@@H](Cc1c[nH]cn1)C(=O)N[C@@H](Cc1c[nH]cn1)C(=O)N[C@@H](Cc1c[nH]cn1)C(=O)N[C@@H](Cc1c[nH]cn1)C(=O)N[C@@H](Cc1c[nH]cn1)C(=O)N[C@@H](CCCNC(=N)N)C(=O)N[C@@H](CC(=O)O)C(=O)N[C@@H](Cc1ccc(O)cc1)C(=O)N[C@@H](CCCCN)C(=O)N[C@@H](CC(=O)O)C(=O)N[C@@H](CC(=O)O)C(=O)N[C@@H](CC(=O)O)C(=O)N[C@@H](CC(=O)O)C(=O)N[C@@H](CCCCN)C(=O)O)[C@@H](C)O (stereo partly shown) [Clone 10V1-Δ19, XRSIPWYTYRWLPN] (For-[X1]RSIPWYTYRWLPNGSGSLGHHHHHHRDYKDDDDK-OH; C-terminus assumed)	20	–	tight binding	–
CC[C@H](C)[C@H](NC(=O)[C@H](CCC(N)=O)NC(=O)[C@H](CCCCN)NC(=O)[C@H](CC(C)C)NC(=O)[C@H](Cc1c[nH]cn1)NC(=O)[C@H](CC(C)C)NC(=O)[C@@H](NC(=O)[C@H](CC(=O)O)NC(=O)[C@H](CCc1cn(C2CCC(OC3O[C@H](CO[C@H]4O[C@H](CO[C@H]5O[C@H](CO)[C@@H](O)[C@H](O)[C@@H]5O[C@H]5O[C@H](CO)[C@@H](O)[C@H](O)[C@@H]5O)[C@@H](O)[C@H](O[C@H]5O[C@H](CO)[C@@H](O)[C@H](O)[C@@H]5O[C@H]5O[C@H](CO)[C@@H](O)[C@H](O)[C@@H]5O)[C@@H]4O)[C@@H](O)[C@H](O[C@H]4O[C@H](CO)[C@@H](O)[C@H](O)[C@@H]4O[C@H]4O[C@H](CO)[C@@H](O)[C@H](O)[C@@H]4O[C@H]4O[C@H](CO)[C@@H](O)[C@H](O)[C@@H]4O)[C@@H]3O)CC2)nn1)NC=O)[C@@H](C)O)C(=O)NCC(=O)NCC(=O)N[C@@H](CCc1cn(C2CCC(OC3O[C@H](CO[C@H]4O[C@H](CO[C@H]5O[C@H](CO)[C@@H](O)[C@H](O)[C@@H]5O[C@H]5O[C@H](CO)[C@@H](O)[C@H](O)[C@@H]5O)[C@@H](O)[C@H](O[C@H]5O[C@H](CO)[C@@H](O)[C@H](O)[C@@H]5O[C@H]5O[C@H](CO)[C@@H](O)[C@H](O)[C@@H]5O)[C@@H]4O)[C@@H](O)[C@H](O[C@H]4O[C@H](CO)[C@@H](O)[C@H](O)[C@@H]4O[C@H]4O[C@H](CO)[C@@H](O)[C@H](O)[C@@H]4O[C@H]4O[C@H](CO)[C@@H](O)[C@H](O)[C@@H]4O)[C@@H]3O)CC2)nn1)C(=O)N1CCC[C@H]1C(=O)N[C@@H](CC(N)=O)C(=O)N[C@@H](CS)C(=O)N[C@H](C(=O)N[C@H](C(=O)N[C@@H](CCC(N)=O)C(=O)N[C@@H](CCC(N)=O)C(=O)N[C@@H](CC(=O)O)C(=O)N[C@H](C(=O)N[C@@H](CCCNC(=N)N)C(=O)N[C@@H](CCc1cn(C2CCC(OC3O[C@H](CO[C@H]4O[C@H](CO[C@H]5O[C@H](CO)[C@@H](O)[C@H](O)[C@@H]5O[C@H]5O[C@H](CO)[C@@H](O)[C@H](O)[C@@H]5O)[C@@H](O)[C@H](O[C@H]5O[C@H](CO)[C@@H](O)[C@H](O)[C@@H]5O[C@H]5O[C@H](CO)[C@@H](O)[C@H](O)[C@@H]5O)[C@@H]4O)[C@@H](O)[C@H](O[C@H]4O[C@H](CO)[C@@H](O)[C@H](O)[C@@H]4O[C@H]4O[C@H](CO)[C@@H](O)[C@H](O)[C@@H]4O[C@H]4O[C@H](CO)[C@@H](O)[C@H](O)[C@@H]4O)[C@@H]3O)CC2)nn1)C(=O)N[C@H](C(=O)N[C@@H](CO)C(=O)N[C@H](C(=O)N1CCC[C@H]1C(=O)N[C@@H](Cc1ccc(O)cc1)C(=O)N[C@H](C(=O)N[C@@H](Cc1ccc(O)cc1)C(=O)N[C@H](C(=O)N[C@@H](Cc1c[nH]c2ccccc12)C(=O)N1CCC[C@H]1C(=O)NCC(=O)N[C@@H](CO)C(=O)NCC(=O)N[C@@H](CO)C(=O)N[C@@H](CC(C)C)C(=O)NCC(=O)N[C@@H](Cc1c[nH]cn1)C(=O)N[C@@H](Cc1c[nH]cn1)C(=O)N[C@@H](Cc1c[nH]cn1)C(=O)N[C@@H](Cc1c[nH]cn1)C(=O)N[C@@H](Cc1c[nH]cn1)C(=O)N[C@@H](Cc1c[nH]cn1)C(=O)N[C@@H](CCCNC(=N)N)C(=O)N[C@@H](CC(=O)O)C(=O)N[C@@H](Cc1ccc(O)cc1)C(=O)N[C@@H](CCCCN)C(=O)N[C@@H](CC(=O)O)C(=O)N[C@@H](CC(=O)O)C(=O)N[C@@H](CC(=O)O)C(=O)N[C@@H](CC(=O)O)C(=O)N[C@@H](CCCCN)C(=O)O)[C@@H](C)O)[C@@H](C)O)[C@@H](C)CC)[C@@H](C)O)C(C)C)[C@@H](C)O)[C@@H](C)CC (stereo partly shown) [Clone 10F3, XDTLHLKQIGGXPNCITQQDVRXTSIPYTYTWP]	–	–	–	tolerated
CC[C@H](C)[C@H](NC(=O)[C@H](CCCNC(=N)N)NC(=O)[C@H](CCCNC(=N)N)NC(=O)CNC(=O)[C@H](CC(=O)O)NC(=O)[C@H](CC(N)=O)NC(=O)[C@H](CC(C)C)NC(=O)[C@@H](NC(=O)[C@H](CCc1cn(C2CCC(OC3O[C@H](CO[C@H]4O[C@H](CO[C@H]5O[C@H](CO)[C@@H](O)[C@H](O)[C@@H]5O[C@H]5O[C@H](CO)[C@@H](O)[C@H](O)[C@@H]5O)[C@@H](O)[C@H](O[C@H]5O[C@H](CO)[C@@H](O)[C@H](O)[C@@H]5O[C@H]5O[C@H](CO)[C@@H](O)[C@H](O)[C@@H]5O)[C@@H]4O)[C@@H](O)[C@H](O[C@H]4O[C@H](CO)[C@@H](O)[C@H](O)[C@@H]4O[C@H]4O[C@H](CO)[C@@H](O)[C@H](O)[C@@H]4O[C@H]4O[C@H](CO)[C@@H](O)[C@H](O)[C@@H]4O)[C@@H]3O)CC2)nn1)NC=O)C(C)C)C(=O)N[C@H](C(=O)N[C@@H](CCC(N)=O)C(=O)N[C@@H](CCc1cn(C2CCC(OC3O[C@H](CO[C@H]4O[C@H](CO[C@H]5O[C@H](CO)[C@@H](O)[C@H](O)[C@@H]5O[C@H]5O[C@H](CO)[C@@H](O)[C@H](O)[C@@H]5O)[C@@H](O)[C@H](O[C@H]5O[C@H](CO)[C@@H](O)[C@H](O)[C@@H]5O[C@H]5O[C@H](CO)[C@@H](O)[C@H](O)[C@@H]5O)[C@@H]4O)[C@@H](O)[C@H](O[C@H]4O[C@H](CO)[C@@H](O)[C@H](O)[C@@H]4O[C@H]4O[C@H](CO)[C@@H](O)[C@H](O)[C@@H]4O[C@H]4O[C@H](CO)[C@@H](O)[C@H](O)[C@@H]4O)[C@@H]3O)CC2)nn1)C(=O)N[C@@H](CO)C(=O)N[C@@H](CS)C(=O)N[C@@H](CCC(=O)O)C(=O)N[C@@H](CC(C)C)C(=O)N1CCC[C@H]1C(=O)N[C@@H](CCc1cn(C2CCC(OC3O[C@H](CO[C@H]4O[C@H](CO[C@H]5O[C@H](CO)[C@@H](O)[C@H](O)[C@@H]5O[C@H]5O[C@H](CO)[C@@H](O)[C@H](O)[C@@H]5O)[C@@H](O)[C@H](O[C@H]5O[C@H](CO)[C@@H](O)[C@H](O)[C@@H]5O[C@H]5O[C@H](CO)[C@@H](O)[C@H](O)[C@@H]5O)[C@@H]4O)[C@@H](O)[C@H](O[C@H]4O[C@H](CO)[C@@H](O)[C@H](O)[C@@H]4O[C@H]4O[C@H](CO)[C@@H](O)[C@H](O)[C@@H]4O[C@H]4O[C@H](CO)[C@@H](O)[C@H](O)[C@@H]4O)[C@@H]3O)CC2)nn1)C(=O)N[C@H](C(=O)N[C@@H](CCCNC(=N)N)C(=O)N[C@@H](CCCNC(=N)N)C(=O)N[C@@H](CO)C(=O)NCC(=O)N[C@@H](CO)C(=O)NCC(=O)N[C@@H](CO)C(=O)N[C@@H](CC(C)C)C(=O)NCC(=O)N[C@@H](Cc1c[nH]cn1)C(=O)N[C@@H](Cc1c[nH]cn1)C(=O)N[C@@H](Cc1c[nH]cn1)C(=O)N[C@@H](Cc1c[nH]cn1)C(=O)N[C@@H](Cc1c[nH]cn1)C(=O)N[C@@H](Cc1c[nH]cn1)C(=O)N[C@@H](CCCNC(=N)N)C(=O)N[C@@H](CC(=O)O)C(=O)N[C@@H](Cc1ccc(O)cc1)C(=O)N[C@@H](CCCCN)C(=O)N[C@@H](CC(=O)O)C(=O)N[C@@H](CC(=O)O)C(=O)N[C@@H](CC(=O)O)C(=O)N[C@@H](CC(=O)O)C(=O)N[C@@H](CCCCN)C(=O)O)C(C)C)C(C)C (stereo partly shown) [Clone 10F5-Δ11, XVLNDGRRIVQXSCELPXVRRS]	17	> 200	–	–
